How the values were obtained:
Assay in all cases: Inhibition assay, microfluidic LabChip (Nanosyn)
Type in all cases: biochemical
CDK6-CYCLIND3 = target: T1, CDK6-CYCLIND3 (Homo sapiens, UniProt Q00534); settings: Table 2; ATP 300 μM; read-out: CDK6 IC50
T1 construct: purchased Carna
Procedure: (§1) The reaction was terminated by the addition of EDTA. The plates were analyzed using a Caliper LabChip 3000.
(§2) Additional inhibition assays were performed as described above.

CDK4-CYCLIND1 = target: T2, CDK4-CYCLIND1 (Homo sapiens, UniProt P11802); settings: Table 2; ATP 200 μM; read-out: CDK4 IC50
T2 construct: purchased Invitrogen
Procedure: as §1, §2

CDK2-CYCLINA = target: T3, CDK2-CYCLINA (Homo sapiens, UniProt P24941);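 further: values are IC50 from a concentration-response series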
T3 construct: purchased Millipore
Procedure: as §1, §2

CDK7 CyclinH = CDK7 CyclinH (Homo sapiens, UniProt P50613);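 further: values are IC50 from a concentration-response series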
Procedure: as §1, §2

T1 sequence (Q00534 whole entry): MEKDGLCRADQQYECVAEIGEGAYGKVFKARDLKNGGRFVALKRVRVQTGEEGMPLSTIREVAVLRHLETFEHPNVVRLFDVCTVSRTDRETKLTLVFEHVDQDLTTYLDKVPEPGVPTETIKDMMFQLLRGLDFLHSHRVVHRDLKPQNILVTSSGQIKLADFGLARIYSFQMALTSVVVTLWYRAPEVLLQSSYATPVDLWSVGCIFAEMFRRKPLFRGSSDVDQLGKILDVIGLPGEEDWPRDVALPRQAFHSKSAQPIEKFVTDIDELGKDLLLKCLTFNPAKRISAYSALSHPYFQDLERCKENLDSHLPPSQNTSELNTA
T1 sequence (P30281 whole entry partner): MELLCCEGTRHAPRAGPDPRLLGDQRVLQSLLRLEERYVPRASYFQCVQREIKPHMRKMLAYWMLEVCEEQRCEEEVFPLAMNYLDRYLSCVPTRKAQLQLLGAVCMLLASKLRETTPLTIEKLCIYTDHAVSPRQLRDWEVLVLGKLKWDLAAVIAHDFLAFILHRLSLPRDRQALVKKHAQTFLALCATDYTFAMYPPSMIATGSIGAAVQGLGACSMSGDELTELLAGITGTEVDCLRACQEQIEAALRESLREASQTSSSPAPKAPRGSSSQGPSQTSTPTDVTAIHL
T2 sequence (P11802 whole entry): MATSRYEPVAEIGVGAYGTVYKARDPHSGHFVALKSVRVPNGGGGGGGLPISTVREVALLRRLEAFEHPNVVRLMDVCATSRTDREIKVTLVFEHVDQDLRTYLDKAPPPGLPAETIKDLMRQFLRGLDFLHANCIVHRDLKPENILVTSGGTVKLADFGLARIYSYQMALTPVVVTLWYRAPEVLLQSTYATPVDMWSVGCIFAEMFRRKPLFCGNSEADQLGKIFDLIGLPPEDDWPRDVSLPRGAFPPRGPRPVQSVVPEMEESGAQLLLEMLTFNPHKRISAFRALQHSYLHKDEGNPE
T2 sequence (P24385 whole entry partner): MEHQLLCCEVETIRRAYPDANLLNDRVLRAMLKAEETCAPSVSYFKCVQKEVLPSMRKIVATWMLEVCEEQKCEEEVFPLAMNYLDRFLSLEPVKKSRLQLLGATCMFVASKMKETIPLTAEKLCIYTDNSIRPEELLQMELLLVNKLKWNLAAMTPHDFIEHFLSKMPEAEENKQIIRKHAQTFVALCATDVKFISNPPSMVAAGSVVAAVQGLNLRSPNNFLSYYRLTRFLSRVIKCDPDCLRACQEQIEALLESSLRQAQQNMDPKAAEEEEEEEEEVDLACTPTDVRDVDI
CDK7 CyclinH, sequence (P50613 whole entry): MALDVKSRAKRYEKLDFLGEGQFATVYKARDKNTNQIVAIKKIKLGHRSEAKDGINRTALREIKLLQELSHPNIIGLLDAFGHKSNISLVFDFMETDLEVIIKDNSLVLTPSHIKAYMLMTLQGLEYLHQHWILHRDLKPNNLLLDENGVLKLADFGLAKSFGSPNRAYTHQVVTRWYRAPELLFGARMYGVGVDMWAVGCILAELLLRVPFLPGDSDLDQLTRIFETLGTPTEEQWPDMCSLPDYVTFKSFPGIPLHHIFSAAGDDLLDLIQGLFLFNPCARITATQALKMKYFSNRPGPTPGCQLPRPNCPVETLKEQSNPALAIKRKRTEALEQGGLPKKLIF
CDK7 CyclinH, sequence (P51946 whole entry partner): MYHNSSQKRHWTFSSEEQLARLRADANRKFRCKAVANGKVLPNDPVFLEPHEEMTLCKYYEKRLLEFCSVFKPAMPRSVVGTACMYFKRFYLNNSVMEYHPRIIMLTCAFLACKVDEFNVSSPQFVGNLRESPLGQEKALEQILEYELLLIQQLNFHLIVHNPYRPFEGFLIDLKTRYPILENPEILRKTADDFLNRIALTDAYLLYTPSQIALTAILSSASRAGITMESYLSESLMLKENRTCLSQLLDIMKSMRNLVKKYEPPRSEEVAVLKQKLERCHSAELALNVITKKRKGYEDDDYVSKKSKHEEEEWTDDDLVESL
CDK7 CyclinH, sequence (P51948 whole entry partner): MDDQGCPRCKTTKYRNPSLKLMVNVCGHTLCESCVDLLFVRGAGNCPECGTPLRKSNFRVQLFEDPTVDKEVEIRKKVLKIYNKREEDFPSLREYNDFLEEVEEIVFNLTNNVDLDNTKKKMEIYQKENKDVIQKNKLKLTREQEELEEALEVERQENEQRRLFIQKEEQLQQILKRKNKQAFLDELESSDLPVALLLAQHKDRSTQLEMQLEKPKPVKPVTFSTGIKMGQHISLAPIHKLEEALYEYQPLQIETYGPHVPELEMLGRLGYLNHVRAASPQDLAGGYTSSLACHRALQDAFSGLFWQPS

Row | Compound | IC50 (CDK6-CYCLIND3) [µM] | IC50 (CDK4-CYCLIND1) [µM] | IC50 (CDK2-CYCLINA; Table 3a) [µM] | IC50 (CDK2-CYCLINA; Table 3b) [µM] | IC50 (CDK7 CyclinH; Table 3a) [µM] | IC50 (CDK7 CyclinH; Table 3b) [µM]
1 | CN1CCN(c2ccc(Nc3ncc4c(F)c(C(=O)N(C)C)n(C5CCCC5)c4n3)cn2)CC1 [Compound A28, 7-cyclopentyl-5-fluoro-N,N-dimethyl-2-((6-(4-methylpiperazin-1-yl)pyridin-3-yl)amino)-7H-pyrrolo[2,3-d]pyrimidine-6-carboxamide] | 0.0819 | 0.0266 | – | – | – | –
2 | CN(C)C(=O)c1c(F)c2cnc(N3CCN(c4ccc(C#N)cc4)CC3)nc2n1C1CCCC1 [Compound A29, 2-(4-(4-cyanophenyl)piperazin-1-yl)-7-cyclopentyl-5-fluoro-N,N-dimethyl-7H-pyrrolo[2,3-d]pyrimidine-6-carboxamide] | > 30 | > 30 | – | – | – | –
3 | Cc1cc(Nc2ncc3cc(C(=O)N(C)C)n(C45CC(C4)C5)c3n2)ccc1N1CCN(C(C)C)CC1 [Compound A31, 7-(bicyclo[1.1.1]pentan-1-yl)-2-((4-(4-isopropylpiperazin-1-yl)-3-methylphenyl)amino)-N,N-dimethyl-7H-pyrrolo[2,3-d]pyrimidine-6-carboxamide] | 0.0337 | 0.009 | – | – | – | –
4 | CN(C)C(=O)c1c(F)c2cnc(Nc3ccc(OCCN4CCCC4)c(F)c3)nc2n1C1CCCC1 [Compound A33, 7-cyclopentyl-5-fluoro-2-((3-fluoro-4-(2-(pyrrolidin-1-yl)ethoxy)phenyl)amino)-N,N-dimethyl-7H-pyrrolo[2,3-d]pyrimidine-6-carboxamide] | 0.0374 | 0.0101 | – | – | – | –
5 | Cc1cc(Nc2ncc3c(F)c(C(=O)N(C)C)n(C4CCCC4)c3n2)ccc1N1CCN(C(C)C)CC1 [Compound A34, 7-cyclopentyl-5-fluoro-2-((4-(4-isopropylpiperazin-1-yl)-3-methylphenyl)amino)-N,N-dimethyl-7H-pyrrolo[2,3-d]pyrimidine-6-carboxamide] | 0.103 | 0.0262 | – | – | – | –
6 | COc1cc(Nc2ncc3c(F)c(C(=O)N(C)C)n(C4CCCC4)c3n2)ccc1N1CCN(C(C)C)CC1 [Compound A35, 7-cyclopentyl-5-fluoro-2-((4-(4-isopropylpiperazin-1-yl)-3-methoxyphenyl)amino)-N,N-dimethyl-7H-pyrrolo[2,3-d]pyrimidine-6-carboxamide] | 0.217 | 0.0438 | – | – | – | –
7 | CCN1CCN(Cc2ccc(Nc3ncc4cc(C(=O)N(C)C)n(C56CC(C5)C6)c4n3)nc2)CC1 [Compound A41, 7-(bicyclo[1.1.1]pentan-1-yl)-2-((5-((4-ethylpiperazin-1-yl)methyl)pyridin-2-yl)amino)-N,N-dimethyl-7H-pyrrolo[2,3-d]pyrimidine-6-carboxamide] | 0.0402 | 0.0214 | – | – | – | –
8 | CN(C)C(=O)c1cc2cnc(Nc3ccc(N4CCOCC4)c(F)c3)nc2n1C12CC(C1)C2 [Compound A42, 7-(bicyclo[1.1.1]pentan-1-yl)-2-((3-fluoro-4-morpholinophenyl)amino)-N,N-dimethyl-7H-pyrrolo[2,3-d]pyrimidine-6-carboxamide] | 0.0434 | 0.015 | – | – | – | –
9 | CC(C)N1CC=C(c2ccc(Nc3ncc4cc(C(=O)N(C)C)n(C56CC(C5)C6)c4n3)nc2)CC1 [Compound A43, 7-(bicyclo[1.1.1]pentan-1-yl)-2-((1′-isopropyl-1′,2′,3′,6′-tetrahydro-[3,4′-bipyridin]-6-yl)amino)-N,N-dimethyl-7H-pyrrolo[2,3-d]pyrimidine-6-carboxamide] | 0.0329 | 0.0356 | – | – | – | –
10 | CN(C)C(=O)c1cc2cnc(Nc3ccc(N4CCC(N5CCOCC5)CC4)cc3)nc2n1C12CC(C1)C2 [Compound A45, 7-(bicyclo[1.1.1]pentan-1-yl)-N,N-dimethyl-2-((4-(4-morpholinopiperidin-1-yl)phenyl)amino)-7H-pyrrolo[2,3-d]pyrimidine-6-carboxamide] | 0.0733 | 0.0293 | – | – | – | –
11 | CN(C)C(=O)c1cc2cnc(Nc3ccc(N4CCNCC4)c(F)c3)nc2n1C12CC(C1)C2 [Compound A85, 7-(bicyclo[1.1.1]pentan-1-yl)-2-((3-fluoro-4-(piperazin-1-yl)phenyl)amino)-N,N-dimethyl-7H-pyrrolo[2,3-d]pyrimidine-6-carboxamide] | – | – | 0.162 | 0.162 | 1.14 | 1.14

Second part, the compound after the results:

Row | IC50 (CDK6-CYCLIND3) [µM] | IC50 (CDK4-CYCLIND1) [µM] | IC50 (CDK2-CYCLINA; Table 3a) [µM] | IC50 (CDK2-CYCLINA; Table 3b) [µM] | IC50 (CDK7 CyclinH; Table 3a) [µM] | IC50 (CDK7 CyclinH; Table 3b) [µM] | Compound
12 | 0.0317 | 0.0107 | – | – | – | – | CN1CCN(c2ccc(Nc3ncc4cc(C(=O)N(C)C)n(C56CC(C5)C6)c4n3)cc2F)CC1 [Compound A30, 7-(bicyclo[1.1.1]pentan-1-yl)-2-((3-fluoro-4-(4-methylpiperazin-1-yl)phenyl)amino)-N,N-dimethyl-7H-pyrrolo[2,3-d]pyrimidine-6-carboxamide]
13 | 0.0101 | 0.00195 | – | – | – | – | CN(C)C(=O)c1cc2cnc(Nc3ccc(OCCN4CCCC4)c(F)c3)nc2n1C1CCCC1 [Compound A32, 7-cyclopentyl-2-((3-fluoro-4-(2-(pyrrolidin-1-yl)ethoxy)phenyl)amino)-N,N-dimethyl-7H-pyrrolo[2,3-d]pyrimidine-6-carboxamide]
14 | 0.0325 | 0.00817 | – | – | – | – | CC(C)N1CCN(c2ccc(Nc3ncc4c(F)c(C(=O)N(C)C)n(C5CCCC5)c4n3)cc2)CC1 [Compound A36, 7-cyclopentyl-5-fluoro-2-((4-(4-isopropylpiperazin-1-yl)phenyl)amino)-N,N-dimethyl-7H-pyrrolo[2,3-d]pyrimidine-6-carboxamide]
15 | 0.0235 | 0.0154 | – | – | – | – | CN1CCN(c2ccc(Nc3ncc4cc(C(=O)N(C)C)n(C56CC(C5)C6)c4n3)nc2)CC1 [Compound A38, 7-(bicyclo[1.1.1]pentan-1-yl)-N,N-dimethyl-2-((5-(4-methylpiperazin-1-yl)pyridin-2-yl)amino)-7H-pyrrolo[2,3-d]pyrimidine-6-carboxamide]
16 | 0.0173 | 0.00516 | – | – | – | – | CN1CCN(c2ccc(Nc3ncc4cc(C(=O)N(C)C)n(C56CC(C5)C6)c4n3)cc2F)CC1 [Compound A40, 7-(bicyclo[1.1.1]pentan-1-yl)-2-((3-fluoro-4-(4-methylpiperazin-1-yl)phenyl)amino)-N,N-dimethyl-7H-pyrrolo[2,3-d]pyrimidine-6-carboxamide]
17 | 0.0101 | 0.00245 | – | – | – | – | CN(C)C(=O)c1cc2cnc(Nc3ccc(C(=O)N4CC[C@H](N(C)C)C4)cc3)nc2n1C12CC(C1)C2 [Compound A44, (S)-7-(bicyclo[1.1.1]pentan-1-yl)-2-((4-(3-(dimethylamino)pyrrolidine-1-carbonyl)phenyl)amino)-N,N-dimethyl-7H-pyrrolo[2,3-d]pyrimidine-6-carboxamide]
18 | 0.0282 | 0.0126 | – | – | – | – | CN(C)C(=O)c1cc2cnc(Nc3ccc(N4CC5(CNC5)C4)nc3)nc2n1C12CC(C1)C2 [Compound A46, 2-((6-(2,6-diazaspiro[3.3]heptan-2-yl)pyridin-3-yl)amino)-7-(bicyclo[1.1.1]pentan-1-yl)-N,N-dimethyl-7H-pyrrolo[2,3-d]pyrimidine-6-carboxamide]
19 | 0.0165 | 0.00522 | – | – | – | – | CN(C)C(=O)c1cc2cnc(Nc3ccc(N4CC5(CNC5)C4)c(F)c3)nc2n1C12CC(C1)C2 [Compound A47, 7-(bicyclo[1.1.1]pentan-1-yl)-2-((3-fluoro-4-(2,6-diazaspiro[3.3]heptan-2-yl)phenyl)amino)-N,N-dimethyl-7H-pyrrolo[2,3-d]pyrimidine-6-carboxamide]
